# Reference: patent US9181303B2, “Treatment of bacterial infections with cyclic antimicrobial peptides” (N[…], priority 2005, dated 2015)
# “And” between values parts separate entries of the source, which are not always exact repeats. Identical values can stand only once.
# Columns and labels:
# T. rubrum = experiment: Broth dilution antifungal susceptibility testing (CLSI M38-P), T. rubrum; format: cell-based, Trichophyton rubrum; details: for MIC versus T. rubrum: T. rubrum cultures
# Procedure: (§1) Broth Dilution Antifungal Susceptibility Testing
# (§2) The sensitivity of relevant fungal strains to the cyclized peptides was determined using Clinical Laboratory Standard Institute (CLSI; formerly NCCLS) Approved Standards. Fungal susceptibility was tested using “Reference Method for Broth Dilution Antifungal Susceptibility Testing of Filamentous Fungi; Approved Standard M38-P”, and yeast susceptibility was tested using “Reference Method for Broth Dilution Antifungal Susceptibility Testing of Yeasts; Approved Standard—Second Edition M27-A”.
# T. rubrum susceptibility to peptides 1-8 was tested.
# T. interdigitale = experiment: Broth dilution antifungal susceptibility testing, T. interdigitale; format: cell-based, Trichophyton interdigitale; details: for Activity towards T. interdigitale: in words
# Procedure: as §1, §2
# T. interdigitale susceptibility to peptides 2-8 was tested. Peptides 2, 4 and 6 were active towards T. interdigitale.
# C. neoformans = experiment: Broth dilution antifungal susceptibility testing of yeasts (M27-A), C. neoformans; format: cell-based, Cryptococcus neoformans
# Procedure: as §1, §2
# C. neoformans susceptibility to peptides 4 and 6-8 was tested using “Reference Method for Broth Dilution Antifungal Susceptibility Testing of Yeasts; Approved Standard—Second Edition M27-A”.
# E. coli = experiment: Broth dilution antibacterial susceptibility testing (CLSI M7-A7), E. coli; format: cell-based; details: for MIC versus E. coli: growth over 16 hours at 37° C.
# Procedure: (§3) Broth Dilution Antibacterial Susceptibility Testing
# (§4) The sensitivity of relevant bacterial strains to the cyclized peptides was determined using Clinical Laboratory Standard Institute (CLSI; formerly NCCLS) Approved Standards. Bacterial susceptibility was tested using “Methods for Dilution Antimicrobial Susceptibility Tests for Bacteria That Grow […]; Approved Standard—Seventh Edition M7-A7”
# (§5) Cultures of E. coli and Staphylococcus aureus were exposed to Peptide 1 and the MIC after growth over the following 16 hours at 37° C. was 1 mM for both organisms (Table 2).
# S. aureus = experiment: Broth dilution antibacterial susceptibility testing (CLSI M7-A7), S. aureus; format: cell-based, Staphylococcus aureus
# Procedure: as §3, §4, §5
# T. mentagrophytes = experiment: Broth dilution antifungal susceptibility testing, T. mentagrophytes; format: cell-based, Trichophyton mentagrophytes
# Procedure: as §1, §2
# M. furfur = experiment: Broth dilution antifungal susceptibility testing, M. furfur; format: cell-based, Malassezia furfur; details: M. furfur DSM6170
# Procedure: as §1, §2
# S. brevicaulis = experiment: Broth dilution antifungal susceptibility testing, S. brevicaulis; format: cell-based, Scopulariopsis brevicaulis
# Procedure: as §1, §2
# A. niger = experiment: Broth dilution antifungal susceptibility testing, A. niger; format: cell-based; details: A. niger NCPF2022
# Procedure: as §1, §2
# A. terreus = experiment: Broth dilution antifungal susceptibility testing, A. terreus; format: cell-based; details: A. terreus NCPF2729
# Procedure: as §1, §2
# Fusarium oxysporum = experiment: Broth dilution antifungal susceptibility testing, Fusarium oxysporum; format: cell-based; details: Fusarium oxysporum NCPF2722
# Procedure: as §1, §2
# Fusarium spp = experiment: Broth dilution antifungal susceptibility testing, Fusarium spp; format: cell-based
# Procedure: as §1, §2
# C. albicans = experiment: Broth dilution antifungal susceptibility testing of yeasts, C. albicans; format: cell-based
# Procedure: as §1, §2
# C. krusei = experiment: Broth dilution antifungal susceptibility testing of yeasts, C. krusei; format: cell-based
# Procedure: as §1, §2
# C. parapsilosis = experiment: Broth dilution antifungal susceptibility testing of yeasts, C. parapsilosis; format: cell-based
# Procedure: as §1, §2
# Ps. aeruginosa = experiment: Broth dilution antibacterial susceptibility testing, Ps. aeruginosa; format: cell-based
# Procedure: as §3, §4
# B. cepacia = experiment: Broth dilution antibacterial susceptibility testing, B. cepacia; format: cell-based, Burkholderia cepacia; details: B. cepacia ATCC25609
# Procedure: as §3, §4
# P. acnes = experiment: Broth dilution antibacterial susceptibility testing, P. acnes; format: cell-based; details: P. acnes DSMZ1897
# Procedure: as §3, §4
# S. epidermidis = experiment: Broth dilution antibacterial susceptibility testing, S. epidermidis; format: cell-based, Staphylococcus epidermidis; details: S. epidermidis ATCC12228
# Procedure: as §3, §4
# C. difficile = experiment: Broth dilution antibacterial susceptibility testing, C. difficile; format: cell-based, Clostridium difficile; details: C. difficile NCTC11209
# Procedure: as §3, §4
substance,measurement,setting,value
Cyclic-DO-DO-DO-DO-DO-DO-DO-G [Peptide 7],MIC versus T. rubrum,T. rubrum,>4.0 mM
same,MIC versus T. interdigitale,T. interdigitale,>4.0 mM
same,MIC versus C. neoformans,C. neoformans,2.0 mM
Cyclic-R-R-R-R-R-R-R-G [Peptide 4],MIC versus T. rubrum,T. rubrum,2.0 mM
same,MIC versus T. interdigitale,T. interdigitale,0.5 mM
same,Activity towards T. interdigitale,T. interdigitale,active
same,MIC versus C. neoformans,C. neoformans,1.0 mM
Cyclic-DK-DK-DK-DK-DK-DK-DK-G [Peptide 8],MIC versus T. rubrum,T. rubrum,> 4.0 mM
same,MIC versus T. interdigitale,T. interdigitale,>4.0 mM
same,MIC versus C. neoformans,C. neoformans,0.5 mM
Cyclic-DR-DR-DR-DR-DR-DR-DR-G [Peptide 6],MIC versus T. rubrum,T. rubrum,1.0 mM
same,MIC versus T. interdigitale,T. interdigitale,0.25 mM
same,Activity towards T. interdigitale,T. interdigitale,active
same,MIC versus C. neoformans,C. neoformans,0.5 mM
Cyclic-K-K-K-K-K-K-K [Peptide 1],MIC versus T. rubrum,T. rubrum,0.1 mM
same,MIC versus E. coli,E. coli,1 mM
same,MIC versus S. aureus,S. aureus; growth over 16 hours at 37° C.,1 mM
Cyclic-R-R-R-R-R-R-R [Peptide 2],MIC,T. rubrum; T. rubrum 7 Clinical Isolates,0.5 to 1.0 mM
same,MIC,T. rubrum; T. rubrum NCPF118,0.25 mM
same,MIC versus T. rubrum,T. rubrum,0.25 mM and 0.2 mM
same,MIC versus T. interdigitale,T. interdigitale,<0.125 mM
same,MIC,T. interdigitale; T. interdigitale NCPF335,<0.125 mM
same,Activity towards T. interdigitale,T. interdigitale,active
same,MIC,E. coli; E. coli NCTC12900,0.1 mM
same,MIC,"E. coli; E. coli, No strain designation",0.1 mM
same,MIC versus E. coli,E. coli,0.1 mM
same,MIC,S. aureus; S. aureus 16 Clinical Isolates,>3.8 mM
same,MIC,"S. aureus; S. aureus ANS46, MRSA",0.95 mM
same,MIC,S. aureus; S. aureus ATCC12598,0.95 mM
same,MIC,S. aureus; S. aureus ATCC25923,>0.1 mM
same,MIC,"S. aureus; S. aureus Col, MRSA",0.95 mM
same,MIC,"S. aureus; S. aureus MW2, MRSA",0.95 mM
same,MIC,"S. aureus; S. aureus N315, MRSA",0.95 mM
same,MIC,"S. aureus; S. aureus NCTC6571, MSSA",>1.9 mM
same,MIC,S. aureus; S. aureus NCTC8325,>1.9 mM
same,MIC,"S. aureus; S. aureus NCTC10442, MRSA",0.25 mM
same,MIC,S. aureus; S. aureus NCTC10788,>1.9 mM
same,MIC,"S. aureus; S. aureus, No strain designation",0.25 mM
same,MIC,T. mentagrophytes; T. mentagrophytes DM2006 978,0.5 mM
same,MIC,T. mentagrophytes; T. mentagrophytes DM2006 1023,0.5 mM
same,MIC,M. furfur,0.031 mM
same,MIC,S. brevicaulis; S. brevicaulis DM2006 1025,0.5 mM
same,MIC,S. brevicaulis; S. brevicaulis NCPF2177,0.5 mM
same,MIC,A. niger,0.5 mM
same,MIC,A. terreus,>2 mM
same,MIC,Fusarium oxysporum,>2 mM
same,MIC,Fusarium spp; Fusarium spp DM2006 294,>2 mM
same,MIC,Fusarium spp; Fusarium spp DM2006 495,>2 mM
same,MIC,Fusarium spp; Fusarium spp DM2006 1026,>2 mM
same,MIC,C. albicans; C. albicans AM2003-020,>2 mM
same,MIC,C. albicans; C. albicans ATCC24433,>2 mM
same,MIC,C. albicans; C. albicans ATCC90028,>2 mM
same,MIC,C. albicans; C. albicans IHEM3742,>2 mM
same,MIC,C. albicans; C. albicans NCTC3179,>2 mM
same,MIC,C. albicans; C. albicans s20122.073,>2 mM
same,MIC,C. krusei; C. krusei ATCC6258,0.125 mM
same,MIC,C. krusei; C. krusei NCPT3953,0.128 to 0.256 mM
same,MIC,C. parapsilosis; C. parapsilosis ATCC22019,0.25 mM
same,MIC,C. parapsilosis; C. parapsilosis ATCC90018,1.0 mM
same,MIC,"Ps. aeruginosa; Ps. aeruginosa ATCC27853 (first entry, r42)",>1.9 mM
same,MIC,"Ps. aeruginosa; Ps. aeruginosa ATCC27853 (second entry, r44)",>2 mM
same,MIC,Ps. aeruginosa; Ps. aeruginosa DSM50071,>2 mM
same,MIC,B. cepacia,>1.9 mM
same,MIC,P. acnes,0.125 mM
same,MIC,S. epidermidis,0.025 mM
same,MIC,C. difficile,>2 mM
Cyclic-K-K-K-K-K-K-K-G [Peptide 3],MIC versus T. rubrum,T. rubrum,4.0 mM
same,MIC versus T. interdigitale,T. interdigitale,>4.0 mM
Cyclic-O-O-O-O-O-O-O-G [Peptide 5],MIC versus T. rubrum,T. rubrum,4.0 mM
same,MIC versus T. interdigitale,T. interdigitale,>4.0 mM
